Experimental data: patent US8242168B2, “Use of phthalide derivatives for the treatment of type 2 diabetes mellitus” (DSM IP Assets B.V., priority 2003, dated 2012)
Where “and” joins values, the source holds several entries; their conditions need not be identical. Equal entries are not always repeated.

Columns and labels:
C3H10T1/2 cells [1] = assay: Glucose uptake of adipocytes (radioactive 2-deoxyglucose); type: cell-based; settings: for Basal glucose uptake / Basal glucose uptake (result in words): 48-h treatment; for Basal glucose uptake: absence of insulin, ± SEM; for Basal glucose uptake (result in words): different concentrations
Procedure: C3H10T1/2 cells (ATCC CCL-226) were grown for 5 days to confluence in DMEM supplemented with 10% FBS medium and induced with a mixture of insulin, dexamethasone and 3-isobutyl-1-methylxanthine to differentiate into adipocytes. Nine days after the beginning of induction, cells were treated for 48-h with ligustilide at different concentrations as shown in Table 2. Glucose uptake was determined using radioactive 2-deoxyglucose (10 μM 2-DG in HBS+0.5 μCi/ml of 3[H]-2-DG), measuring glucose uptake in the absence of insulin. Basal glucose uptake was increased by 48-h treatment with ligustilide in a dose-dependent manner (Table 2). This increase in glucose uptake was specific, since the increase was not observed in the presence of phloretin, a known inhibitor of specific glucose uptake.
Growing, induction and treatment of C3H10T1/2 cells were exactly as described in Example 1, with die exception that 3-butylphthalide at different concentrations was used instead of ligustilide.
Growing, induction and treatment of C3H10T1/2 cells were exactly as described in Example 1, with the exception that 3-butylidenphthalide at different concentrations was used instead of ligustilide.

C3H10T1/2 cells [2] = assay: Differentiation of adipocytes (oil Red O staining); type: cell-based; settings: for Differentiation of the cells into adipocytes versus insulin alone (result in words): co-treatment with insulin, 10 days; for Mean OD ± SEM (oil Red O, 540 nm): 10-day treatment
Procedure: After the 10-day treatment, the cells were stained with oil Red O as follows: cells were washed 2× in PBS and fixed in 10% formalin at room temperature for 1 h. After removal of formalin, 200 μl of oil Red O staining solution (3:2 mixture of 0.5% w/v oil Red O stock solution and water) was applied to each well. The cells were incubated for 20 min at room temperature, washed twice in 2×PBS and incubated for 10 min with 300 μl of isopropanol/well for oil Red O extraction. Quantification of oil Red O was determined by measuring absorbance at 540 nm (mean OD).
The measurement of adipocyte differentiation using the oil Red O assay was performed as described in Example 4.

C57BLKS/J db/db mice = assay: Blood glucose and oral glucose tolerance test in db/db mice; type: in vivo
Procedure: The efficacy of ligustilide on glucose tolerance was tested in a 7-day study in C57BLKS/J db/db mice (n=10/group), a model of late type 2 diabetes mellitus with severe hyperglycemia which is widely used to determine the efficacy of PPARγ ligands.
Male db/db mice were obtained from Jackson Laboratory (Bar Harbor, Me., USA). Adult mice aged 12 weeks were used in the experiment. Mice were housed individually in plastic cages with bedding and allowed free access to standard rodent food and tap water. The animal rooms were controlled for temperature (24° C.), humidity (55%), and light (12-h light-dark cycle). The animals were randomized in two groups and ligustilide was administered orally to one of the groups for 7 days at a dose of 200 mg/kg BW/day. After 7 days of treatment the concentration of glucose was determined in blood from fed animals, i.e., animals which were not restricted from food. After a period of 5 days of treatment an oral glucose tolerance test (OGTT) was performed. For the OGTT mice were fasted overnight and then a 1-g glucose/kg BW solution was orally administered. […] Blood glucose was measured by a glucose analyzer (Glucotrend Premium, Roche Diagnostics, Rotkreuz, Switzerland).

[3] = insulin 1 × 10^−7 M + compound 1 × 10^−5 M
[4] = insulin 1 × 10^−7 M + compound 1 × 10^−4 M

Molecule | Basal glucose uptake (C3H10T1/2 cells [1]; 1 × 10^−4 M) | Basal glucose uptake (C3H10T1/2 cells [1]; 1 × 10^−5 M) | Basal glucose uptake (C3H10T1/2 cells [1]; 1 × 10^−6 M) | Basal glucose uptake (result in words) (C3H10T1/2 cells [1]) | Differentiation of the cells into adipocytes versus insulin alone (result in words) (C3H10T1/2 cells [2]) | Mean OD ± SEM (oil Red O, 540 nm) (C3H10T1/2 cells [2]; [3]) | Basal glucose uptake (C3H10T1/2 cells [1]; 5 × 10^−5 M) | Mean OD ± SEM (oil Red O, 540 nm) (C3H10T1/2 cells [2]; [4]) | further results
CCCC[C@@H]1OC(=O)c2ccccc21 (stereo in doubt) [3-Butylphthalide] | 136.7 ± 8.5 % of control | 97.5 ± 8.5 % of control | 99.3 ± 8.5 % of control | increase | higher differentiation | 0.21 ± 0.01 | – | – | –
Insulin [reference compound] | – | – | – | – | – | – | – | – | Mean OD ± SEM (oil Red O, 540 nm) (C3H10T1/2 cells [2]; insulin 1 × 10^−7 M alone): 0.14 ± 0.01 and 0.16 ± 0.01; Mean OD ± SEM (oil Red O, 540 nm) (C3H10T1/2 cells [2]; insulin 2 × 10^−7 M alone (negative control)): 0.687 ± 0.34
CCC/C=C1\OC(=O)C2=C1CCC=C2 [Ligustilide] | 175.0 ± 24.4 % of control | – | – | increased | higher differentiation | – | 131.8 ± 24.4 % of control | – | Basal glucose uptake (C3H10T1/2 cells [1]; 2 × 10^−4 M): 294.4 ± 24.4 % of control; Basal glucose uptake (C3H10T1/2 cells [1]; 5 × 10^−6 M): 105.9 ± 24.4 % of control; Increase in glucose uptake in the presence of phloretin (C3H10T1/2 cells [1]; phloretin, inhibitor of specific glucose uptake): not observed; Glucose AUC of an OGTT (result in words) (C57BLKS/J db/db mice; 1 g glucose/kg body weight, day 5): significantly reduced; Blood glucose levels during the OGTT versus control (result in words) (C57BLKS/J db/db mice; OGTT on day 5, 15-180 min): lower at all time points; Glucose levels of fasted animals versus untreated control (result in words) (C57BLKS/J db/db mice; after 5 days of treatment, overnight fasting): significantly decreased; Glucose levels of fed animals (result in words) (C57BLKS/J db/db mice; after 7 days of treatment, 200 mg/kg BW/day): significantly lowered; Blood Glucose Fasted (C57BLKS/J db/db mice; db/db mice, 200 mg/kg BW/day orally, after 5 days, overnight fasting): 196 mg/dL; Blood Glucose Fed (C57BLKS/J db/db mice; db/db mice, 200 mg/kg BW/day orally, after 7 days, fed animals): 388 mg/dL; Glucose AUC (OGTT) (C57BLKS/J db/db mice; db/db mice, 200 mg/kg BW/day orally, day 5, OGTT 1 g glucose/kg BW, 0-180 min): 51039; Mean OD ± SEM (oil Red O, 540 nm) (C3H10T1/2 cells [2]; insulin 2 × 10^−7 M + compound 5 × 10^−6 M): 1.71 ± 0.34
CCCC[C@@H]1OC(=O)C2=CCCCC21 (some centres unmarked) [Sedanolide] | – | – | – | – | higher differentiation | 0.15 ± 0.01 | – | 0.18 ± 0.01 | –
CCC/C=C1\OC(=O)c2ccccc21 [3-Butylidenephthalide] | 137.3 ± 8.5 % of control | 123.8 ± 8.5 % of control | 107.0 ± 8.5 % of control | increase | higher differentiation | 0.15 ± 0.01 | – | 0.28 ± 0.01 | Mean OD ± SEM (oil Red O, 540 nm) (C3H10T1/2 cells [2]; insulin 1 × 10^−7 M + compound 5 × 10^−5 M): 0.22 ± 0.01
CC1(COc2ccc(CC3SC(=O)NC3=O)cc2)CCCCC1 (centres unmarked) [Ciglitazone, reference compound] | – | – | – | – | – | – | 381.5 ± 24.4 % of control | – | –
